# Reference: patent US10011573B2, “Human androgen receptor DNA-binding domain (DBD) compounds as therapeutics and methods for their use” (The University of British Columbia, priority 2014, dated 2018)
# Like-named read-outs stand apart in the source and are kept apart here.
# What was measured:
# PSA = test: Prostate-specific antigen (PSA) assay, secreted PSA from the eGFP assay plates; type: cell-based, human
# Experimental: 3. Prostate-specific antigen (PSA) assay: The evaluation of PSA levels secreted into the media was performed in parallel to the eGFP assay using the same plates. After cells were incubated for 3 days, 150 μl of the media was taken from each well, and added to 150 μl of PBS.
# androgen receptor (AR) = biological target: T1, androgen receptor (AR) (Homo sapiens, UniProt P10275, T878A); test: eGFP cellular AR transcription assay (LNCaP eGFP cells, LN-ARR2PB-eGFP); conditions: for inhibition at 3 µM: LNCaP, read-out: % Inhibition (3 μM); for anti-AR activity (AR transcriptional inhibition) in words: LNCaP (T877A AR)
# T1 sequence (P10275 1-920 T878A): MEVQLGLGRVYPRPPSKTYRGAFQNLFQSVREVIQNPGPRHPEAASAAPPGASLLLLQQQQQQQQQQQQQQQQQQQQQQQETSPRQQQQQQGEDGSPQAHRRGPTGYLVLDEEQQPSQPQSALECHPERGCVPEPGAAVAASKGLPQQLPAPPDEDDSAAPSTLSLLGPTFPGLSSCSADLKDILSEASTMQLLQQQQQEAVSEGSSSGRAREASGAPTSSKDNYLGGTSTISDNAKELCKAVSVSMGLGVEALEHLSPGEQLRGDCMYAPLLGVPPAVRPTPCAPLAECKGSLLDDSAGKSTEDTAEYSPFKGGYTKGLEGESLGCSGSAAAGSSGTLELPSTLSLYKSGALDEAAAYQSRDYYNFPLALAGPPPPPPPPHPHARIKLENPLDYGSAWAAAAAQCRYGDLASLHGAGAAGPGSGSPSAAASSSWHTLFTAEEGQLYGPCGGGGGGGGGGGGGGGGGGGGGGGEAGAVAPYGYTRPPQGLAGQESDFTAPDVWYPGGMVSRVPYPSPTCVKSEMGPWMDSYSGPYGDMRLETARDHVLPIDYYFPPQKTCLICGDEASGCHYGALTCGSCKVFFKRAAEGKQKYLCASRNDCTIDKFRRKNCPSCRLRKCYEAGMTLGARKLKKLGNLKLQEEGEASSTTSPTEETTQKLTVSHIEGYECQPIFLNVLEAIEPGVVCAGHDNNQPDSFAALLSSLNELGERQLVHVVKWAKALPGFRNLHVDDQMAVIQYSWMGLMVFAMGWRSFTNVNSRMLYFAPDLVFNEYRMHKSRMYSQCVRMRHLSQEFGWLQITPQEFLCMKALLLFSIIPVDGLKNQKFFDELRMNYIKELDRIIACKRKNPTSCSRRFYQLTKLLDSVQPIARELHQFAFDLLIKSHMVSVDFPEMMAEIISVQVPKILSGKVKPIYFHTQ
# [1] = biological target: T2, AR hormone binding site (recombinant wild type LBD) (Rattus norvegicus, UniProt P15207); test: Androgen displacement assay (Polar Screen Androgen Receptor Competitor Green Assay Kit); conditions: fluorescence polarization
# T2 construct: displace DHT from the ABS site of recombinant wild type LBD
# T2 sequence (P15207 651-882 limits assumed): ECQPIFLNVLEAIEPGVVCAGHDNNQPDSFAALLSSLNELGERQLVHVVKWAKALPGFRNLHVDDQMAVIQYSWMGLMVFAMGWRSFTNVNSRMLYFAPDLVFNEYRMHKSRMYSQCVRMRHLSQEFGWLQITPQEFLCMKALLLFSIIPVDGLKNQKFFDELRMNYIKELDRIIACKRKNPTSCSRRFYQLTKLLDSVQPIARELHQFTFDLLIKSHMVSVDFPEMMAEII
# Experimental: 5. Androgen displacement assay: The androgen displacement was assessed with the Polar Screen Androgen Receptor Competitor Green Assay Kit as per the instructions of the manufacturer (Lack, Axerio-Cilies et al. 2011).
# The ability of the above chemicals to displace DHT from the ABS site of recombinant wild type LBD was measured using a fluorescent polarization assay (PolarScreen™, Life Technologies) at various concentrations.
# AR target genes = test: Microarray genetic profile in LNCaP cells; conditions: 1 nM R1881, 24 h
# [2] = eGFP IC50 (μM), LNCaP eGFP cells
# [3] = eGFP IC50, LNCaP eGFP cells, 0.1 nM R1881
smiles,measurement,setting,value
"Cc1scc(-c2csc(N3CCOCC3)n2)c1C [Compound 14408, 4-(4-(4,5-dimethylthiophen-3-yl)thiazol-2-yl)morpholine]",IC50,"PSA; Homo sapiens, Series 1",430 nM
same,IC50,"androgen receptor (AR); eGFP IC50 (μM), Series 1",0.42 µM
Fc1ccc2sc(N3CCOCC3)nc2c1F [Compound 14409],IC50,"PSA; Homo sapiens, secreted PSA",340 nM
same,inhibition at 3 µM,androgen receptor (AR),86%
same,IC50,androgen receptor (AR); [2],0.36 µM
c1cc(-c2csc(N3CCOCC3)n2)ccn1 [Compound 14435],Androgen Displacement IC50,[1],No displacement
same,anti-AR activity (AR transcriptional inhibition) in words,androgen receptor (AR),maintained good potency
same,partial agonistic effect,androgen receptor (AR); LNCaP eGFP cells,no undesired partial agonistic effect
same,IC50,"androgen receptor (AR); eGFP IC50 (μM), Series 1",2.61 µM
same,IC50,androgen receptor (AR); [3],3.87 ± 1.26 µM
c1ccc(-c2csc(N3CCOCC3)n2)nc1 [Compound 14436],Androgen Displacement IC50,[1],No displacement
same,anti-AR activity (AR transcriptional inhibition) in words,androgen receptor (AR),maintained good potency
same,partial agonistic effect,androgen receptor (AR); LNCaP eGFP cells,no undesired partial agonistic effect
same,IC50,"androgen receptor (AR); eGFP IC50 (μM), Series 1",2.51 µM
same,IC50,androgen receptor (AR); [3],4.53 ± 0.26 µM
c1cncc(-c2csc(N3CCOCC3)n2)c1 [Compound 14439],Androgen Displacement IC50,[1],low displacement
same,anti-AR activity (AR transcriptional inhibition) in words,androgen receptor (AR),maintained good potency
same,partial agonistic effect,androgen receptor (AR); LNCaP eGFP cells,no undesired partial agonistic effect
same,inhibition at 3 µM,androgen receptor (AR),81%
same,IC50,androgen receptor (AR); [3],0.16 ± 0.03 µM
c1cncc(-c2csc(-c3c[nH]c4ccccc34)n2)c1 [Compound 14442],IC50,"PSA; Homo sapiens, Series 1",3050 nM
same,inhibition at 3 µM,androgen receptor (AR),86.3%
same,IC50,"androgen receptor (AR); eGFP IC50 (μM), Series 1",5.39 µM
"Brc1cn(-c2csc(N3CCOCC3)n2)cn1 [Compound 14447, 4-(4-(4-bromo-1H-imidazol-1-yl)thiazol-2-yl)morpholine]",IC50,"PSA; Homo sapiens, Series 1",1740 nM
same,IC50,"androgen receptor (AR); eGFP IC50 (μM), Series 1",2.1 µM
"Clc1cn(-c2csc(N3CCOCC3)n2)cn1 [Compound 14448, 4-(4-(4-chloro-1H-imidazol-1-yl)thiazol-2-yl)morpholine]",IC50,"PSA; Homo sapiens, Series 1",720 nM
same,IC50,"androgen receptor (AR); eGFP IC50 (μM), Series 1",0.96 µM
"Clc1c(Br)ncn1-c1csc(N2CCOCC2)n1 [Compound 14450, 4-(4-(4-bromo-5-chloro-1H-imidazol-1-yl)thiazol-2-yl)morpholine]",IC50,"PSA; Homo sapiens, Series 1",1280 nM
same,IC50,"androgen receptor (AR); eGFP IC50 (μM), Series 1",1.3 µM
"Clc1ncn(-c2csc(N3CCOCC3)n2)c1Br [Compound 14451, 4-(4-(5-bromo-4-chloro-1H-imidazol-1-yl)thiazol-2-yl)morpholine]",IC50,"PSA; Homo sapiens, Series 1",440 nM
same,IC50,"androgen receptor (AR); eGFP IC50 (μM), Series 1",0.33 µM
Brc1ccc2nc(N3CCOCC3)ccc2c1 [Compound 14452],IC50,"PSA; Homo sapiens, secreted PSA",170 nM
same,IC50,androgen receptor (AR); [2],0.11 µM
Nc1ccccc1-c1nc(-c2cccnc2)cs1 [Compound 14463],IC50,"PSA; Homo sapiens, Series 1",2120 nM
same,IC50,"androgen receptor (AR); eGFP IC50 (μM), Series 1",2.3 µM
"Ic1ncn(-c2csc(N3CCOCC3)n2)c1I [Compound 14464, 4-(4-(4,5-diiodo-1H-imidazol-1-yl)thiazol-2-yl)morpholine]",IC50,"PSA; Homo sapiens, Series 1",1810 nM
same,IC50,"androgen receptor (AR); eGFP IC50 (μM), Series 1",1.5 µM
"Clc1ncn(-c2csc(N3CCOCC3)n2)c1I [Compound 14468, 4-(4-(4-chloro-5-iodo-1H-imidazol-1-yl)thiazol-2-yl)morpholine]",IC50,"PSA; Homo sapiens, Series 1",4020 nM
same,IC50,"androgen receptor (AR); eGFP IC50 (μM), Series 1",2.44 µM
c1ccc2c(-c3csc(-c4c[nH]c5ccccc45)n3)c[nH]c2c1 [Compound 14471],IC50,"PSA; Homo sapiens, Series 1",1410 nM
same,IC50,"androgen receptor (AR); eGFP IC50 (μM), Series 1",1.02 µM
c1csc(-c2nc(-c3c[nH]c4ccccc34)cs2)c1 [Compound 14481],IC50,"PSA; Homo sapiens, Series 1",1410 nM
same,inhibition at 3 µM,androgen receptor (AR),80.5%
same,IC50,"androgen receptor (AR); eGFP IC50 (μM), Series 1",2.18 µM
N#Cc1ccc(-c2nc3ccccc3s2)cc1 [Compound 14489],IC50,"PSA; Homo sapiens, secreted PSA",1060 nM
same,inhibition at 3 µM,androgen receptor (AR),82.5%
same,IC50,androgen receptor (AR); [2],1.79 µM
O=C(O)c1sc(N2CCOCC2)nc1-c1ccccc1 [Compound 14506],IC50,PSA; Series 1,4500 nM
same,IC50,androgen receptor (AR); read-out: eGFP IC50,7 µM
"C[C@]1(O)CC[C@H]2[C@@H]3CCC4=CC(=O)CCC4=C3C=C[C@@]21C [Compound R1881, R1881, reference compound]","FKBP5 gene expression fold change, DMSO+R1881 against DMSO-R1881",AR target genes,1.61
same,"KLK2 gene expression fold change, DMSO+R1881 against DMSO-R1881",AR target genes,3.60
same,"KLK3 (PSA) gene expression fold change, DMSO+R1881 against DMSO-R1881",AR target genes,2.42
same,"TMPRSS2 gene expression fold change, DMSO+R1881 against DMSO-R1881",AR target genes,2.25
